Measured values from PubChem BioAssay AID330 (DTP/NCI, 2004).
Values joined by “and” are separate entries in the source; they are usually repeats but may differ in a detail not shown here. Identical values can stand only once. Toxic doses and inconclusive results are not listed.

Test system: P388 leukemia ip, CD2F1 mice, survival T/C
Test: NCI In Vivo Anticancer Drug Screen. Data for tumor model P388 Leukemia (intraperitoneal) in CD2F1 (CDF1) mice
Details: endpoint: median survival time, higher = longer survival
Outline: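 Mice carrying the transplanted tumor received test compound or vehicle. Survival was recorded in each group, and the value is the treated-group measurement divided by that of the vehicle-treated control group.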

[1] = dose: 50.0 mg/kg/injection, schedule: Q01DX005 (ip), vehicle: Klucel (hydroxypropylcellulose) (HPC)
[2] = dose: 100.0 mg/kg/injection, schedule: Q01DX005 (ip), vehicle: Klucel (hydroxypropylcellulose) (HPC)
[3] = dose: 200.0 mg/kg/injection, schedule: Q01DX005 (ip), vehicle: Klucel (hydroxypropylcellulose) (HPC)
[4] = dose: 25.0 mg/kg/injection, schedule: Q01DX005 (ip), vehicle: saline with Tween-80
[5] = dose: 50.0 mg/kg/injection, schedule: Q01DX005 (ip), vehicle: saline with Tween-80
[6] = dose: 100.0 mg/kg/injection, schedule: Q01DX005 (ip), vehicle: saline with Tween-80
[7] = dose: 50.0 mg/kg/injection, schedule: Q01DX009 (ip), vehicle: saline
[8] = dose: 100.0 mg/kg/injection, schedule: Q01DX009 (ip), vehicle: saline
[9] = dose: 200.0 mg/kg/injection, schedule: Q01DX009 (ip), vehicle: saline
[10] = dose: 100.0 mg/kg/injection, schedule: Q01DX009 (ip), vehicle: Klucel (hydroxypropylcellulose) (HPC)
[11] = dose: 200.0 mg/kg/injection, schedule: Q01DX009 (ip), vehicle: Klucel (hydroxypropylcellulose) (HPC)
[12] = dose: 50.0 mg/kg/injection, schedule: Q01DX009 (ip), vehicle: saline with Tween-80
[13] = dose: 100.0 mg/kg/injection, schedule: Q01DX009 (ip), vehicle: saline with Tween-80
[14] = dose: 200.0 mg/kg/injection, schedule: Q01DX009 (ip), vehicle: saline with Tween-80

## C=CCNC(=S)Nc1ncn[nH]1
[1]
  T/C: 95 % of control
[2]
  T/C: 104 % of control

## Fc1nn2ccccc2c1C(F)(F)F
[1]
  T/C: 99 % of control
[2]
  T/C: 104 % of control
[3]
  T/C: 100 % of control

## CC1(C)C2CCC(CN)C1C2 (centres undefined)
dose: 12.5 mg/kg/injection, schedule: Q01DX009 (ip), vehicle: other
  T/C: 96 % of control
dose: 25.0 mg/kg/injection, schedule: Q01DX009 (ip), vehicle: other
  T/C: 97 % of control
dose: 50.0 mg/kg/injection, schedule: Q01DX009 (ip), vehicle: other
  T/C: 100 % of control

## CC(=O)O.Cl.NC1C([O-])OC(CO)C(O)C1O.O=C1OC(C(O)CO)C([O-])=C1[OH2+].[Cu+2] (centres undefined)
dose: 3.75 mg/kg/injection, schedule: Q01DX005 (ip), vehicle: saline with Tween-80
  T/C: 107 % of control
dose: 7.5 mg/kg/injection, schedule: Q01DX005 (ip), vehicle: saline with Tween-80
  T/C: 100 % of control
dose: 15.0 mg/kg/injection, schedule: Q01DX005 (ip), vehicle: saline with Tween-80
  T/C: 98 % of control and 97 % of control
dose: 60.0 mg/kg/injection, schedule: Q01DX005 (ip), vehicle: saline with Tween-80
  T/C: 108 % of control

## [O-][n+]1c(C2=C(N3CCCC3)c3ccccc3C2)c(Cl)c(Cl)c(Cl)c1C1=C(N2CCCC2)c2ccccc2C1
[4]
  T/C: 102 % of control
[5]
  T/C: 103 % of control
[6]
  T/C: 93 % of control

## CCOC(=O)c1c(N)c(=O)oc2c3c(c(O)cc12)OCO3
[1]
  T/C: 94 % of control
[2]
  T/C: 89 % of control

## C=C1C(=O)C23C(OC(=O)CCC)C1CCC2C12COC3(O)C(O)C1C(C)(C)CCC2O (centres undefined)
dose: 3.75 mg/kg/injection, schedule: Q01DX009 (ip), vehicle: saline with Tween-80
  T/C: 102 % of control
dose: 7.5 mg/kg/injection, schedule: Q01DX009 (ip), vehicle: saline with Tween-80
  T/C: 101 % of control
dose: 15.0 mg/kg/injection, schedule: Q01DX009 (ip), vehicle: saline with Tween-80
  T/C: 107 % of control
dose: 30.0 mg/kg/injection, schedule: Q01DX009 (ip), vehicle: saline with Tween-80
  T/C: 111 % of control

## CN(C)S(=O)(=O)CC(O)C(Cl)(Cl)Cl (centres undefined)
[7]
  T/C: 100 % of control
[8]
  T/C: 98 % of control
[9]
  T/C: 98 % of control

## Cc1cc2c(c(O)c1O)/C(=C/N=NC(N)=S)C(Cl)=N2
dose: 100.0 mg/kg/injection, schedule: Q01DX001 (ip), vehicle: Klucel (hydroxypropylcellulose) (HPC)
  T/C: 101 % of control
dose: 200.0 mg/kg/injection, schedule: Q01DX001 (ip), vehicle: Klucel (hydroxypropylcellulose) (HPC)
  T/C: 102 % of control
dose: 400.0 mg/kg/injection, schedule: Q01DX001 (ip), vehicle: Klucel (hydroxypropylcellulose) (HPC)
  T/C: 100 % of control

## O=C(Nc1ccc(NC(=O)Nc2cc(C(F)(F)F)ccc2Oc2ccc(Cl)c(Cl)c2)cc1)Nc1cc(C(F)(F)F)ccc1Oc1ccc(Cl)c(Cl)c1
dose: 60.0 mg/kg/injection, schedule: Q01DX005 (ip), vehicle: Klucel (hydroxypropylcellulose) (HPC)
  T/C: 91 % of control
dose: 120.0 mg/kg/injection, schedule: Q01DX005 (ip), vehicle: Klucel (hydroxypropylcellulose) (HPC)
  T/C: 98 % of control
dose: 240.0 mg/kg/injection, schedule: Q01DX005 (ip), vehicle: Klucel (hydroxypropylcellulose) (HPC)
  T/C: 94 % of control

## c1ccc2c(c1)ccc1[nH]c3ccc4ccccc4c3c12
dose: 1.56 mg/kg/injection, schedule: Q01DX005 (ip), vehicle: Klucel (hydroxypropylcellulose) (HPC)
  T/C: 100 % of control and 109 % of control and 111 % of control
dose: 3.12 mg/kg/injection, schedule: Q01DX005 (ip), vehicle: Klucel (hydroxypropylcellulose) (HPC)
  T/C: 107 % of control and 116 % of control and 117 % of control

## CCCCOC(=O)NC(=O)c1cc2cc(Cl)ccc2oc1=O
[5]
  T/C: 95 % of control
[6]
  T/C: 88 % of control

## Clc1ccc(-c2noc(CN3CCOCC3)n2)cc1
[7]
  T/C: 102 % of control
[8]
  T/C: 105 % of control
[9]
  T/C: 109 % of control

## O=C1c2ccccc2C(=O)c2c1ccc1c2OCO1
dose: 5.0 mg/kg/injection, schedule: Q01DX005 (ip), vehicle: Klucel (hydroxypropylcellulose) (HPC)
  T/C: 96 % of control
dose: 10.0 mg/kg/injection, schedule: Q01DX005 (ip), vehicle: Klucel (hydroxypropylcellulose) (HPC)
  T/C: 87 % of control
dose: 20.0 mg/kg/injection, schedule: Q01DX005 (ip), vehicle: Klucel (hydroxypropylcellulose) (HPC)
  T/C: 86 % of control and 88 % of control
dose: 40.0 mg/kg/injection, schedule: Q01DX005 (ip), vehicle: Klucel (hydroxypropylcellulose) (HPC)
  T/C: 95 % of control

## COc1cc2c(cc1OC)C(=O)CCC2
dose: 25.0 mg/kg/injection, schedule: Q01DX009 (ip), vehicle: Klucel (hydroxypropylcellulose) (HPC)
  T/C: 105 % of control
dose: 50.0 mg/kg/injection, schedule: Q01DX009 (ip), vehicle: Klucel (hydroxypropylcellulose) (HPC)
  T/C: 100 % of control
[10]
  T/C: 106 % of control
[11]
  T/C: 99 % of control

## Nc1ccc2c(c1)C1(CCC2)NC(=O)NC1=O (centres undefined)
[12]
  T/C: 96 % of control
[13]
  T/C: 95 % of control
[14]
  T/C: 105 % of control

## CCN(Cc1cc(Nc2ccnc3cc(Cl)ccc23)ccc1O)C(=O)N1CCN(C)CC1
dose: 100.0 mg/kg/injection, schedule: Q04DX002 (ip), vehicle: Klucel (hydroxypropylcellulose) (HPC)
  T/C: 100 % of control
dose: 200.0 mg/kg/injection, schedule: Q04DX002 (ip), vehicle: Klucel (hydroxypropylcellulose) (HPC)
  T/C: 96 % of control
dose: 400.0 mg/kg/injection, schedule: Q04DX002 (ip), vehicle: Klucel (hydroxypropylcellulose) (HPC)
  T/C: 96 % of control

## CCC(C)C1NC(=O)C(NC(=O)c2c3nc4c(C(=O)NC5C(=O)NC(C(C)CC)C(=O)N6CCCC6C(=O)N(C)CC(=O)N(C)C(C(C)C)C(=O)OC5C)cc(N)c(C)c4oc-3c(C)c(=O)c2N)C(C)OC(=O)C(C(C)C)N(C)C(=O)CN(C)C(=O)C2CCCN2C1=O (centres undefined)
dose: 0.1 mg/kg/injection, schedule: Q01DX009 (ip), vehicle: Klucel (hydroxypropylcellulose) (HPC)
  T/C: 247 % of control
dose: 0.2 mg/kg/injection, schedule: Q01DX009 (ip), vehicle: Klucel (hydroxypropylcellulose) (HPC)
  T/C: 230 % of control
dose: 100.0 micrograms/kg/injection, schedule: Q01DX009 (ip), vehicle: water
  T/C: 152 % of control
dose: 150.0 micrograms/kg/injection, schedule: Q01DX009 (ip), vehicle: water
  T/C: 166 % of control
dose: 225.0 micrograms/kg/injection, schedule: Q01DX009 (ip), vehicle: water
  T/C: 177 % of control

## CCOC(=O)/C=C1\NC(=O)N(CCCCCCN2C(=O)N/C(=C\C(=O)OCC)C2=O)C1=O
[12]
  T/C: 101 % of control
[13]
  T/C: 93 % of control
[14]
  T/C: 93 % of control

## CC1CCC(OC(=O)NCCCl)CC1 (centres undefined)
[1]
  T/C: 97 % of control
[2]
  T/C: 96 % of control
[3]
  T/C: 101 % of control

## c1ccc2cc3c(ccc4ccccc43)cc2c1
dose: 25.0 mg/kg/injection, schedule: Q04DX003 (ip), vehicle: other
  T/C: 99 % of control
[12]
  T/C: 100 % of control
dose: 50.0 mg/kg/injection, schedule: Q04DX003 (ip), vehicle: other
  T/C: 104 % of control
[13]
  T/C: 97 % of control
dose: 100.0 mg/kg/injection, schedule: Q04DX003 (ip), vehicle: other
  T/C: 99 % of control
[14]
  T/C: 103 % of control
dose: 200.0 mg/kg/injection, schedule: Q04DX003 (ip), vehicle: other
  T/C: 96 % of control
dose: 400.0 mg/kg/injection, schedule: Q04DX003 (ip), vehicle: other
  T/C: 96 % of control

## ClCCOCCOc1c(Cl)cc(Cl)cc1Cl
[10]
  T/C: 93 % of control
[11]
  T/C: 103 % of control
dose: 400.0 mg/kg/injection, schedule: Q01DX009 (ip), vehicle: Klucel (hydroxypropylcellulose) (HPC)
  T/C: 100 % of control

## CC1(c2cccc(N(CCCl)CCCl)c2)NC(=O)NC1=O (centres undefined)
dose: 25.0 mg/kg/injection, schedule: Q01DX009 (ip), vehicle: saline with Tween-80
  T/C: 166 % of control
[12]
  T/C: 184 % of control and 204 % of control
[13]
  T/C: 90 % of control

## Cc1cc(N(C)C)c2ccc(N(C)C)cc2n1
dose: 12.5 mg/kg/injection, schedule: Q01DX005 (ip), vehicle: saline with Tween-80
  T/C: 97 % of control
[4]
  T/C: 98 % of control
[5]
  T/C: 99 % of control and 104 % of control

## C(#Cc1c2ccccc2c(C#Cc2ccccc2)c2c(-c3ccccc3)cccc12)c1ccccc1
[5]
  T/C: 97 % of control
[6]
  T/C: 87 % of control

## COC(=O)C(CP(C)(C)=O)C(N=C(C)C(F)(F)F)(c1ccccc1)c1ccccc1 (centres undefined)
[1]
  T/C: 100 % of control
[2]
  T/C: 100 % of control
[3]
  T/C: 107 % of control
